Reference: patent US20210186972A1, “FORMULATIONS AND METHODS FOR THE PREVENTION AND TREATMENT OF TUMOR METASTASIS AND TUMORIGENESIS” (THE UNITED STATES OF AMERICA, AS REPRESENTED BY THE …, priority 2018, published 2021)

Columns and labels:
PANC1 cells = experiment: Cell growth, PANC1; type: cell-based, human; settings: 0.6 μM, after 24 hours of treatment
Description: FIG. 63 is a graph showing the drug response of PANC1 cells following metarrestin treatment. […] Mean cell viability values are plotted with standard error of the mean (SEM) from at least 2 independent experiments done in triplicate.

[1] = tested on: Pol I transcription (5′ETS RNA); experiment: rDNA transcription: BrU incorporation and qRT-PCR of 5′ETS; type: cell-based
Experimental: To determine which steps in ribosomal biogenesis that are disrupted by metarrestin, rDNA transcription was evaluated using a BrU incorporation assay, an in situ run-on assay that detects the localization pattern of newly synthesized RNA. Cells were rinsed once in glycerol buffer (20 mM Tris-HCl pH 7.4, 5 mM MgCl2, 25% glycerol, 0.5 mM PMSF, 0.5 mM EGTA) and followed by Br—U incorporation assay protocol. The cells were co-immunolabeled with C23 (Santa Cruz Biotechnology) at a 1:100 dilution and anti-BrdU that also recognizes Br—U (Sigma) at a 1:50 dilution.
To evaluate the impact on rDNA transcription in metarrestin-treated cells, the amounts of 5′ETS RNA were quantified. The amount of 5′ETS correlates with the amount of rDNA transcription because 5′ETS in nascent pre-rRNA transcripts is rapidly removed.
RT-PCR: Total RNA was isolated from cells using TRIZOL reagent (Invitrogen) according to the manufacturer's instructions. cDNA was synthesized with Random Hexamer (IDT DNA Technologies) or gene-specific primers using M-MLV Reverse Transcriptase (Invitrogen 28025-013). The DNA was PCR-amplified with gene-specific primers. 5′ETS-F: […] (SEQ ID NO: 11); 5′ETS-R: GAACGACACACCACCGTTC (SEQ ID NO: 12); eEF1A1-F: […] […]

PANC1, PC3M, and HeLa = experiment: DNA damage response, cell cycle and apoptosis; type: cell-based
Experimental: Genotoxic agents that intercalate into or alkylate DNA, such as actinomycin D, induce similar nucleolar segregation to that observed with metarrestin treatment. To determine whether metarrestin induces nucleolar changes through genotoxic effects or general cytotoxicity, the impact of metarrestin on DNA damage repair, cell cycle, and general Pol II transcription status in three cell lines, PANC1, PC3M, and HeLa, was evaluated. […]

Pol II transcription = Pol II transcription status: CUGBP and SC35 immunolabeling; type: cell-based
Description: To further determine whether metarrestin interferes with Pol II transcription in general, CUGBP was immunolabeled. The steady state nuclear distribution of CUGBP, a multifunctional hnRNP protein highly enriched in the PNC, is dependent upon Pol II transcription.

eEF1A [2] = experiment: Affinity purification with biotin-conjugated metarrestin and competition; type: binding
Description: FIG. 35 is a Western blot illustrating that metarrestin effectively outcompeted recombinant eEF1A from binding to anchored biotinylated metarrestin-eEF1A complex. […] Increased eEF1A2 enhances PNCs and metastasis formation.

eEF1A [3] = experiment: Western blot of total eEF1A; type: cell-based; settings: 1 μM, 24 hours

## N=c1c2c(-c3ccccc3)c(-c3ccccc3)n(Cc3ccccc3)c2ncn1[C@H]1CC[C@H](O)CC1 [metarrestin]
PANC1 cells
  PANC1 cell growth: did not affect PC3M or PANC1 cell growth
[1]; five-minute incubation
  Organization of newly synthesized rRNA (BrU incorporation): altered into tight small clusters
[1]; vs DMSO-treated control cells
  5′ETS RNA (quantitative RT-PCR): substantial reduction of 5′ETS RNA
PANC1, PC3M, and HeLa
  Apoptotic index, cells undergoing apoptosis: less than 1%
PANC1, PC3M, and HeLa; 1 μM, 24 hours
  DNA damage response signature factors: neither phosphorylated yH2AX or p53BP1, nor phosphorylated p53
PANC1, PC3M, and HeLa; two different concentrations within 24 hours
  Cell cycle pattern (DNA content, flow cytometry): did not show a significant alteration of cell cycle pattern
Pol II transcription
  Localization of CUGBP: without causing cytoplasmic relocation of CUGBP
  SC35 distribution pattern: not significantly changed
eEF1A [2]
  Binding to eEF1A (competition and proteomic analysis): metarrestin-binding protein
eEF1A [3]
  Total eEF1A protein: remained similar
